Reference: patent US10973815B2, “Delta opioid agonist mu opioid antagonist compositions and methods for treating Parkinsons disease” (priority 2016, dated 2021)

Assays:
[1] = tested on: unilateral 6-OHDA-lesioned Rats; experiment: Postural asymmetry and dyskinesia (AIMs) on repeated dosing in unilateral 6-OHDA-lesioned rats; type: in vivo, rat; settings: 3 mg/kg p.o. daily for 15 days
[2] = tested on: MPTP-lesioned macaques with established motor complications; experiment: Monotherapy with DPI-289 in MPTP-lesioned macaques with established motor complications due to L-DOPA; type: in vivo, Macaca fascicularis
Protocol: This activity is measured by an infra-red movement detector and captures all movement, normal and abnormal. Data are mean±s.e.m. […] N=8 for all treatment groups. */**/*** represents P<0.05, P<0.01 or P<0.001 cf vehicle-treatment; 2-way RM ANOVA (FIG. 2A) or 1-way RM-ANOVA with Holm-Sidak's Multiple Comparison test (FIGS. 2B and C). […].
Parkinsonian disability is scored by a trained neurologist who is blinded to treatment allocation but is trained to differentiate normal from abnormal movements and is able to distinguish diminution of Parkinsonian disability from dyskinetic (abnormal) movements. Data are mean±s.e.m. […] N=8 for all treatment groups. */**/*** represents P<0.05, P<0.01 or P<0.001 cf. vehicle-treatment; 2-way RM ANOVA (FIG. 6A) or 1-way RM-ANOVA with Holm-Sidak's Multiple Comparison test (FIGS. 6 B and C).
Eight cynomolgus monkeys (Macaca fascicularis, 6.4-6.8 years of age, 2.8-4.2 kg were used in this study. Animals were housed two or three per cage in the same housing room. The housing rooms were subject to a 12 hour light-dark cycle (lights on 7 a.m.), temperature 20-25° C. in a room containing only animals of the same sex. Fresh fruit, primate pellets and water were available ad libitum other than at times of overnight fasting prior to PK or behavioral assessment days.
The animals were rendered parkinsonian via once-daily subcutaneous injection of MPTP (0.2 mg/kg), administered for between 9 and 12 days, until the appearance of parkinsonism symptoms. After this time, a parkinsonian syndrome reached a moderate to marked level, over approximately 30 days, and stabilized. […] L-DOPA naïve animals have received no L-DOPA and those showing established motor complication have received L-DOPA in an amount 25 mg/kg orally twice daily for at least 2 months. L-DOPA is given with the decarboxylase inhibitor benserazide (as Madopar™).

[3] = tested on: MPTP-lesioned cynomolgus macaques; experiment: Acute DPI-289 in combination with low-dose L-DOPA, versus high-dose L-DOPA, in MPTP-lesioned macaques with L-DOPA-induced dyskinesia; type: in vivo, Macaca fascicularis
Source text: This study utilized female MPTP-lesioned cynomolgus macaques that have received chronic repeat-treatment with L-DOPA and manifested stable and reproducible dyskinesia, of choreic and dystonic nature, in response to subsequent L-DOPA-treatments. Eight cynomolgus monkeys (Macaca fascicularis, 7.6-13.1 years of age, 3.0-4.5 kg) were used in this study. In a prior experiment, for each individual animal a low and high dose of L-DOPA was established such that the low dose (LD1) provided modest anti-parkinsonian action (1-2 h) and elicited predominantly non-disabling dyskinesia, the high dose (LDh) provided the best anti-parkinsonian effect achievable but also elicited disabling dyskinesia and an anti-parkinsonian benefit of 2-3 h duration
The behavioral effects of acute DPI-289 administered in combination with low-dose L-DOPA (LD1) were assessed. Also higher dose of L-DOPA was also assessed without the addition of DPI-289. The low dose (LD1) was about 10 to 11 mg/kg of L-DOPA which is considered to be sub-optimal in terms of anti-parkinsonian benefit. The dose of DPI-289 was 20 mg/kg and the high dose of L-DOPA was about 30 to 31 mg/kg and considered to an optimal does in terms of anti-parkinsonian benefit but with disabling dyskinesia. The DPI-289 was administered one (1) hour prior to the L-DOPA and start of observation. Activity counts were collected and parkinsonian disability and dyskinesia was assessed via post-hoc analysis of video-recordings by a movement disorder neurologist blinded to treatment.
On the day before behavioral observations, food was removed overnight, from 5 p.m. On days of behavioral assessment, treatment was administered to the animals in their home cage at approximately 9 a.m. A 6 h period of observation then commenced 1 h after oral dosing.
The animals were rendered parkinsonian by once daily subcutaneous injection of 0.2 mg/kg MPTP, administered for 8-12 days, until the first appearance of parkinsonism symptoms. After this time, a parkinsonian syndrome reached a moderate to marked level, over approximately 30 days, and stabilized. Additional administrations of MPTP were given to some animals to titrate to similar degrees of parkinsonism in individuals across the group. […] Sixty days after commencing MPTP administration, L-DOPA (25 mg/kg) was administered orally twice daily for at least two months. L-DOPA was given with the decarboxylase inhibitor benserazide (as Madopar™). This treatment leads to the development of motor fluctuations, including dyskinesia.

6-OHDA-lesioned rats = experiment: Rotations in unilateral 6-OHDA-lesioned rats; type: in vivo, rat
Source text: N=6 rats per group, Newman-Keuls post hoc test was used for statistical significance.
N=8 per group, Newman-Keuls post hoc test for statistical significance.
In a rat model of PD, focal injection of the neurotoxin 6-hydroxydopamine (6-OHDA) was used to create a unilateral lesion of the nigrostriatal dopamine pathway. When challenged with dopamine agonists, rats rotate in the direction contralateral to the lesion and the number of rotations may be used as a measure of anti-parkinsonian efficacy.

[4] = DPI-289 20 mg/kg in combination with low-dose L-DOPA

Which “dyskinesia (abnormal involuntary movements, AIMs)” value [1] does the source give for CCN(CC)C(=O)c1ccc(C(c2cccc(O)c2)N2C[C@@H](C)N(Cc3cccc(F)c3)C[C@@H]2C)cc1 (stereo partly drawn) [DPI-289, 4-((alpha-R)-alpha-((2S,5R)-2,5-Dimethyl-4-(3-fluorobenzyl)-1-piperazinyl)-3-hydroxybenzyl)-N,N-diethylbenzamide] here?
The value was “did not elicit dyskinesia”.

What about the postural asymmetry [1] of the same compound?
Its postural asymmetry is “reduced or reversed the postural asymmetry”.

And the bradykinesia ([2]; 20 mg/kg)?
Its bradykinesia is “significant change only in the first hour”.

And the ON-time ([2]; 20 mg/kg oral)?
The ON-time was “only limited on-time”.

What about the parkinsonian disability ([2]; 20 mg/kg, two to three hours after dosing) of the same compound?
Its parkinsonian disability is “significant reduction in parkinsonian disability”.

What about the postural impairment ([2]; 1, 10 and 20 mg/kg, two to four hours after dosing) of the same compound?
Its postural impairment is “significant reduction in postural impairment”.

What about the range of movement ([2]; 1, 10 or 20 mg/kg, three to four hours after dose) of the same compound?
The range of movement was “increase in the range of movement”.

What about the alertness ([2]; 10 or 20 mg/kg, two to four hours after dosing) of the same compound?
The alertness was “significant reduction in deficits in alertness”.

And the dyskinesia ([2]; L-DOPA primed animals, 1, 10, 20 mg/kg)?
Its dyskinesia is “does not cause dyskinesia”.

What about the “duration of effect on parkinsonian disability” value ([2]; single dose of 20 mg/kg) of the same compound?
Its value is “about 4 hours”.

And the “movement activity / motor impairment” value ([2]; single oral dose of 10 or 20 mg/kg)?
The value was “significantly alleviated motor impairment for 1 to 4 hours”.

And the “Good ON-time” value [3, 4]?
Its value is “comparable ‘good’ time as that of the high dose of L-DOPA”.

And the alertness [3, 4]?
The alertness was “improvement in alertness value that mirrored that of the high dose of L-DOPA”.

What about the parkinsonian disability [3, 4] of the same compound?
The parkinsonian disability was “even and consistent level of fairly mild parkinsonian disability”.

And the postural instability [3, 4]?
Its postural instability is “reduced postural instability from about 2 to 6 hours after the dosing”.

And the “range of movement impairment” value [3, 4]?
Its value is “reduced range of movement impairment than low dose L-DOPA alone but this difference did not reach statistical significance”.

What about the motor activity ([3]; DPI-289 20 mg/kg in combination with low-dose L-DOPA (about 10 to 11 mg/kg), cf. high dose L-DOPA) of the same compound?
Its motor activity is “extended activity into four and five hours”.

And the dyskinesia ([3]; DPI-289 20 mg/kg in combination with low-dose L-DOPA, cf. low-dose L-DOPA alone)?
Its dyskinesia is “no additional dyskinesia”.

What about the “BAD ON-time (ON-time with disabling dyskinesia)” value ([3]; DPI-289 20 mg/kg in combination with low-dose L-DOPA, relative to high dose L-DOPA) of the same compound?
Its value is “considerably less of ‘bad’ time”.

What about the bradykinesia ([3]; DPI-289 20 mg/kg in combination with low-dose L-DOPA, three to six hours after dosing) of the same compound?
Its bradykinesia is “same level of bradykinesia as that of the high dose of L-DOPA”.

What about the “duration of effect on parkinsonian disability” value ([3]; DPI-289 20 mg/kg in combination with sub-therapeutic L-DOPA) of the same compound?
The value was “at least 6 hours”.

What about the “contralateral and ipsilateral rotations” value (6-OHDA-lesioned rats; 30 mg/kg) of the same compound?
The value was “also increased rotations but the effect on contralateral rotations appeared to be diminished”.

And the “contralateral and ipsilateral rotations” value (6-OHDA-lesioned rats; 1-10 mg/kg i.p.)?
Its value is “dose-related increase in both contralateral and ipsilateral rotations”.

And the L-DOPA-induced contralateral rotations (6-OHDA-lesioned rats; co-administered with sub-optimal dose of L-DOPA (25 mg/kg i.p.))?
The L-DOPA-induced contralateral rotations was “marked potentiation of contralateral rotations”.
